# Experimental data published in patent US7459585B2, “Benzene derivatives and pharmaceutical use thereof” (Ajinomoto Co., Inc., priority 1998, dated 2008).
# Test system: NF-kappa B
# Assay: Evaluation of NF-kappa B inhibition (β-gal reporter, IL-1β-induced)
# Format: cell-based
# Details: Homo sapiens; β-gal reporter with NF-kappa B binding motif in SV40 large T-immortalized HUVEC; induced with 1 ng/ml IL-1β; read-out: NF-kB inhibiting activity IC50
# Description: Cells used for the tests were those prepared by stably introducing E. coli β-galactosidase (β-gal) genes driven by SV 40 minimum promoter fused with 4 tandems of the AP-1 binding motif derived from human MMP-1 gene enhancer into human normal umbilical cord vein endothelial cells (HUVEC) immortalized with SV 40 large T antigen. The cells were subcultured in RPMI medium containing 10% of FBS, and were seeded on a 96-well plate in a concentration of 1×10^4/well on a day before the start of the experiments. A compound of the present invention was dissolved in DMSO to obtain a solution of a proper concentration, which was added into the 96-well plate so that the final DMSO concentration would be not higher than 1%. 30 minutes after the addition of the compound, phorbol-12-myristate-13-acetate (PMA) was added to each well so as to obtain the final concentration of 50 ng/ml. β-gal activity was determined 16 hours after with a chemiluminescent substrate (Galacton-Light-Plus: Boehringer Mannheim) according to a protocol attached to the reagent. A Luminescence detector (ATTO) was used for the determination.
# The tests were carried out in the same manner as that of Example 56. Concretely, the AP-1 binding motif of the reporter genes in Example 56 was replaced with the NF-kappa B binding motif derived from immunoglobulin kappa light chain enhancer, and NF-kappa B transcriptional activity was induced with 1 ng/ml of IL-1β in place of PMA.
row,Compound,IC50
1,CC1(C)CC1C(=O)Nc1ccc(C(=O)c2ccc(NC(=O)C3CC3(C)C)cc2)cc1 (centres unmarked) [Compound 1],> 5 µg/mL
2,CC1(C)CC1C(=O)Nc1ccc(Sc2ccc(NC(=O)C3CC3(C)C)cc2)cc1 (centres unmarked) [Compound 2],0.1 µg/mL
3,CC1(C)CC1C(=O)Nc1ccc(Nc2ccc(NC(=O)C3CC3(C)C)cc2)cc1 (centres unmarked) [Compound 3],1 µg/mL
4,CC1(C)CC1C(=O)Nc1ccc(Oc2ccc(NC(=O)C3CC3(C)C)cc2)cc1 (centres unmarked) [Compound 4],1.1 µg/mL
5,CC1(C)CC1C(=O)Nc1ccc(S(=O)(=O)c2ccc(NC(=O)C3CC3(C)C)cc2)cc1 (centres unmarked) [Compound 5],> 5 µg/mL
6,CC1(C)CC1C(=O)Nc1ccc(CCc2ccc(NC(=O)C3CC3(C)C)cc2)cc1 (centres unmarked) [Compound 6],0.37 µg/mL
7,CC1(C)CC1C(=O)Nc1ccc(Cc2cccc(NC(=O)C3CC3(C)C)c2)cc1 (centres unmarked) [Compound 7],0.37 µg/mL
8,CC1(C)CC1C(=O)Nc1ccc(C(=NO)c2ccc(NC(=O)C3CC3(C)C)cc2)cc1 (centres unmarked) [Compound 8],5 µg/mL
9,CC1(C)CC1C(=O)Nc1ccc(C(N)c2ccc(NC(=O)C3CC3(C)C)cc2)cc1 (centres unmarked) [Compound 9],2.5 µg/mL
10,CC(=O)NC(c1ccc(NC(=O)C2CC2(C)C)cc1)c1ccc(NC(=O)C2CC2(C)C)cc1 (centres unmarked) [Compound 10],> 5 µg/mL
11,CC1(C)CC1C(=O)Nc1ccc(C(O)c2ccc(NC(=O)C3CC3(C)C)cc2)cc1 (centres unmarked) [Compound 11],0.12 µg/mL
12,COC(c1ccc(NC(=O)C2CC2(C)C)cc1)c1ccc(NC(=O)C2CC2(C)C)cc1 (centres unmarked) [Compound 12],> 5 µg/mL
13,CC1(C)CC1C(=O)Nc1ccc(C(CN=[N+]=[N-])c2ccc(NC(=O)C3CC3(C)C)cc2)cc1 (centres unmarked) [Compound 17],2.5 µg/mL
14,CC1(C)CC1C(=O)Nc1ccc(C(CN)c2ccc(NC(=O)C3CC3(C)C)cc2)cc1 (centres unmarked) [Compound 18],3 µg/mL
15,CC1(C)CC1C(=O)Nc1ccc(C(CC#N)c2ccc(NC(=O)C3CC3(C)C)cc2)cc1 (centres unmarked) [Compound 19],1.2 µg/mL
16,CC1(C)CC1C(=O)Nc1ccc(C(CC(=O)O)c2ccc(NC(=O)C3CC3(C)C)cc2)cc1 (centres unmarked) [Compound 20],3 µg/mL

row,Compound,IC50
1,CC1(C)CC1C(=O)Nc1ccc(Cc2ccc(NC(=O)C3CC3(Cl)Cl)cc2)cc1 (centres unmarked) [Compound 23],0.1 µg/mL
2,COc1ccc(CC(=O)Nc2ccc(Cc3ccc(NC(=O)C4CC4(C)C)cc3)cc2)cc1 (centres unmarked) [Compound 24],0.1 µg/mL
3,CN(C)c1ccc(CC(=O)Nc2ccc(Cc3ccc(NC(=O)C4CC4(C)C)cc3)cc2)cc1 (centres unmarked) [Compound 25],0.03 µg/mL
4,COc1ccc(CCC(=O)Nc2ccc(Cc3ccc(NC(=O)C4CC4(C)C)cc3)cc2)cc1 (centres unmarked) [Compound 26],0.1 µg/mL
5,COc1ccc(CCNc2ccc(Cc3ccc(NC(=O)C4CC4(C)C)cc3)cc2)cc1 (centres unmarked) [Compound 27],0.1 µg/mL
6,COc1ccc(CCCNc2ccc(Cc3ccc(NC(=O)C4CC4(C)C)cc3)cc2)cc1 (centres unmarked) [Compound 28],0.1 µg/mL
7,CC1(C)C[C@@H]1C(=O)Nc1ccc(C(O)c2ccc(NC(=O)[C@@H]3CC3(C)C)cc2)cc1 (some centres unmarked) [Compound 34],0.06 µg/mL
8,CC1(C)C[C@H]1C(=O)Nc1ccc(C(O)c2ccc(NC(=O)[C@@H]3CC3(C)C)cc2)cc1 [Compound 35],> 5 µg/mL
9,Cc1cc(Cc2ccc(NC(=O)C3CC3(C)C)c(C)c2)ccc1NC(=O)C1CC1(C)C (centres unmarked) [Compound 38],0.5 µg/mL
10,CC1(C)CC1C(=O)Nc1ccc(Cc2ccc(N3C(=O)C4C5C=CC(C5)C4C3=O)cc2)cc1 (centres unmarked) [Compound 40],1 µg/mL
11,CC1(C)CC1C(=O)Nc1ccc(Cc2ccc(NC(=O)C3CCCN3)cc2)cc1 (centres unmarked) [Compound 43],0.1 µg/mL
12,CC1(C)CC1C(=O)Nc1ccc(C(O)c2ccc(NC(=O)Cc3ccc(Cl)cc3)cc2)cc1 (centres unmarked) [Compound 44],1.5 µg/mL
13,COc1ccc(CC(=O)Nc2ccc(C(O)c3ccc(NC(=O)C4CC4(C)C)cc3)cc2)cc1 (centres unmarked) [Compound 45],0.9 µg/mL
14,CC1(C)CC1C(=O)Nc1ccc(COc2ccc(NC(=O)C3CC3(C)C)cc2)cc1 (centres unmarked) [Compound 51],1 µg/mL
15,CC1(C)CC1C(=O)Nc1ccc(CSc2ccc(NC(=O)C3CC3(C)C)cc2)cc1 (centres unmarked) [Compound 52],0.2 µg/mL
16,COc1ccc(CCCC(=O)Nc2ccc(Cc3ccc(NC(=O)C4CC4(C)C)cc3)cc2)cc1 (centres unmarked) [Compound 55],0.1 µg/mL
